Measured values reported in ChEMBL document CHEMBL5303573, “Mapping human microbiome drug metabolism by gut bacteria and their genes” (Nature, 2019).

assay: The drug is tested on Bifidobacterium longum subsp. Infantis strain: CCUG52486 for biotransformation. The drug concentrations were measured before and after a 12-h incubation by liquid-chromatography-coupled mass spectrometry (LC–MS); details: 2 µM

Row | Structure (SMILES) | Bacterial Biotransformation
1 | CN1CCC[C@@H]1CCO[C@](C)(c1ccccc1)c1ccc(Cl)cc1.O=C(O)/C=C/C(=O)O [CLEMASTINE FUMARATE] | Compound NOT metabolized
2 | Br.CN(C)CCCC1(c2ccc(F)cc2)OCc2cc(C#N)ccc21 (stereo not given) [CITALOPRAM HYDROBROMIDE] | Compound NOT metabolized
3 | CC(=O)SCC(Cc1ccccc1)C(=O)NCC(=O)OCc1ccccc1 (stereo not given) [RACECADOTRIL] | Compound metabolized
4 | C[N+]12CCC(CC1)C(OC(=O)C(O)(c1ccccc1)c1ccccc1)C2.[Br-] (stereo not given) [CLIDINIUM BROMIDE] | Compound NOT metabolized

assay: The drug is tested on Collinsella aerofaciens strain: ATCC25986 for biotransformation. The drug concentrations were measured before and after a 12-h incubation by liquid-chromatography-coupled mass spectrometry (LC–MS); details: 2 µM

Row | Structure (SMILES) | Bacterial Biotransformation
5 | CN1CCC[C@@H]1CCO[C@](C)(c1ccccc1)c1ccc(Cl)cc1.O=C(O)/C=C/C(=O)O [CLEMASTINE FUMARATE] | Compound NOT metabolized
6 | Br.CN(C)CCCC1(c2ccc(F)cc2)OCc2cc(C#N)ccc21 (stereo not given) [CITALOPRAM HYDROBROMIDE] | Compound NOT metabolized
7 | CC(=O)SCC(Cc1ccccc1)C(=O)NCC(=O)OCc1ccccc1 (stereo not given) [RACECADOTRIL] | Compound NOT metabolized
8 | C[N+]12CCC(CC1)C(OC(=O)C(O)(c1ccccc1)c1ccccc1)C2.[Br-] (stereo not given) [CLIDINIUM BROMIDE] | Compound NOT metabolized

assay: The drug is tested on Bacteroides caccae strain: ATCC43185 for biotransformation. The drug concentrations were measured before and after a 12-h incubation by liquid-chromatography-coupled mass spectrometry (LC–MS); details: 2 µM

Row | Structure (SMILES) | Bacterial Biotransformation
9 | Br.CN(C)CCCC1(c2ccc(F)cc2)OCc2cc(C#N)ccc21 (stereo not given) [CITALOPRAM HYDROBROMIDE] | Compound NOT metabolized
10 | C[N+]12CCC(CC1)C(OC(=O)C(O)(c1ccccc1)c1ccccc1)C2.[Br-] (stereo not given) [CLIDINIUM BROMIDE] | Compound NOT metabolized

assay: The drug is tested on Bacteroides finegoldii strain: DSM17565 for biotransformation. The drug concentrations were measured before and after a 12-h incubation by liquid-chromatography-coupled mass spectrometry (LC–MS); details: 2 µM

Row | Structure (SMILES) | Bacterial Biotransformation
11 | Br.CN(C)CCCC1(c2ccc(F)cc2)OCc2cc(C#N)ccc21 (stereo not given) [CITALOPRAM HYDROBROMIDE] | Compound NOT metabolized
12 | CC(=O)SCC(Cc1ccccc1)C(=O)NCC(=O)OCc1ccccc1 (stereo not given) [RACECADOTRIL] | Compound metabolized
13 | C[N+]12CCC(CC1)C(OC(=O)C(O)(c1ccccc1)c1ccccc1)C2.[Br-] (stereo not given) [CLIDINIUM BROMIDE] | Compound NOT metabolized

assay: The drug is tested on Bacteroides fragilis strain: HMW615 for biotransformation. The drug concentrations were measured before and after a 12-h incubation by liquid-chromatography-coupled mass spectrometry (LC–MS); details: 2 µM

Row | Structure (SMILES) | Bacterial Biotransformation
14 | CN1CCC[C@@H]1CCO[C@](C)(c1ccccc1)c1ccc(Cl)cc1.O=C(O)/C=C/C(=O)O [CLEMASTINE FUMARATE] | Compound NOT metabolized
15 | Br.CN(C)CCCC1(c2ccc(F)cc2)OCc2cc(C#N)ccc21 (stereo not given) [CITALOPRAM HYDROBROMIDE] | Compound NOT metabolized
16 | CC(=O)SCC(Cc1ccccc1)C(=O)NCC(=O)OCc1ccccc1 (stereo not given) [RACECADOTRIL] | Compound metabolized

assay: The drug is tested on Bacteroides fragilis strain: ATCC43859 for biotransformation. The drug concentrations were measured before and after a 12-h incubation by liquid-chromatography-coupled mass spectrometry (LC–MS); details: 2 µM

Row | Structure (SMILES) | Bacterial Biotransformation
17 | CN1CCC[C@@H]1CCO[C@](C)(c1ccccc1)c1ccc(Cl)cc1.O=C(O)/C=C/C(=O)O [CLEMASTINE FUMARATE] | Compound NOT metabolized
18 | Br.CN(C)CCCC1(c2ccc(F)cc2)OCc2cc(C#N)ccc21 (stereo not given) [CITALOPRAM HYDROBROMIDE] | Compound NOT metabolized

assay: The drug is tested on Bacteroides xylanisolvens strain: DSM18836 for biotransformation. The drug concentrations were measured before and after a 12-h incubation by liquid-chromatography-coupled mass spectrometry (LC–MS); details: 2 µM

Row | Structure (SMILES) | Bacterial Biotransformation
19 | CN1CCC[C@@H]1CCO[C@](C)(c1ccccc1)c1ccc(Cl)cc1.O=C(O)/C=C/C(=O)O [CLEMASTINE FUMARATE] | Compound metabolized
20 | CC(=O)SCC(Cc1ccccc1)C(=O)NCC(=O)OCc1ccccc1 (stereo not given) [RACECADOTRIL] | Compound metabolized
21 | C[N+]12CCC(CC1)C(OC(=O)C(O)(c1ccccc1)c1ccccc1)C2.[Br-] (stereo not given) [CLIDINIUM BROMIDE] | Compound NOT metabolized

assay: The drug is tested on Odoribacter splanchnicus strain: fecal isolate for biotransformation. The drug concentrations were measured before and after a 12-h incubation by liquid-chromatography-coupled mass spectrometry (LC–MS); details: 2 µM

Row | Structure (SMILES) | Bacterial Biotransformation
22 | CN1CCC[C@@H]1CCO[C@](C)(c1ccccc1)c1ccc(Cl)cc1.O=C(O)/C=C/C(=O)O [CLEMASTINE FUMARATE] | Compound metabolized
23 | CC(=O)SCC(Cc1ccccc1)C(=O)NCC(=O)OCc1ccccc1 (stereo not given) [RACECADOTRIL] | Compound metabolized

assay: The drug is tested on Clostridium scindens strain: ATCC35704 for biotransformation. The drug concentrations were measured before and after a 12-h incubation by liquid-chromatography-coupled mass spectrometry (LC–MS); details: 2 µM

Row | Structure (SMILES) | Bacterial Biotransformation
24 | CN1CCC[C@@H]1CCO[C@](C)(c1ccccc1)c1ccc(Cl)cc1.O=C(O)/C=C/C(=O)O [CLEMASTINE FUMARATE] | Compound NOT metabolized
25 | Br.CN(C)CCCC1(c2ccc(F)cc2)OCc2cc(C#N)ccc21 (stereo not given) [CITALOPRAM HYDROBROMIDE] | Compound NOT metabolized
26 | C[N+]12CCC(CC1)C(OC(=O)C(O)(c1ccccc1)c1ccccc1)C2.[Br-] (stereo not given) [CLIDINIUM BROMIDE] | Compound NOT metabolized

assay: The drug is tested on Clostridium sporogenes strain: ATCC15579 for biotransformation. The drug concentrations were measured before and after a 12-h incubation by liquid-chromatography-coupled mass spectrometry (LC–MS); details: 2 µM

Row | Structure (SMILES) | Bacterial Biotransformation
27 | Br.CN(C)CCCC1(c2ccc(F)cc2)OCc2cc(C#N)ccc21 (stereo not given) [CITALOPRAM HYDROBROMIDE] | Compound NOT metabolized
28 | CC(=O)SCC(Cc1ccccc1)C(=O)NCC(=O)OCc1ccccc1 (stereo not given) [RACECADOTRIL] | Compound metabolized
29 | C[N+]12CCC(CC1)C(OC(=O)C(O)(c1ccccc1)c1ccccc1)C2.[Br-] (stereo not given) [CLIDINIUM BROMIDE] | Compound NOT metabolized

assay: The drug is tested on Coprococcus comes strain: ATCC27758 for biotransformation. The drug concentrations were measured before and after a 12-h incubation by liquid-chromatography-coupled mass spectrometry (LC–MS); format: ADME; parameters: dose 2 uM, timepoint 0 vs 12 hours; details: 2 µM

Row | Structure (SMILES) | Bacterial Biotransformation
30 | Br.CN(C)CCCC1(c2ccc(F)cc2)OCc2cc(C#N)ccc21 (stereo not given) [CITALOPRAM HYDROBROMIDE] | Compound NOT metabolized
31 | C[N+]12CCC(CC1)C(OC(=O)C(O)(c1ccccc1)c1ccccc1)C2.[Br-] (stereo not given) [CLIDINIUM BROMIDE] | Compound NOT metabolized

assay: The drug is tested on Eubacterium hallii strain: DSM3353 for biotransformation. The drug concentrations were measured before and after a 12-h incubation by liquid-chromatography-coupled mass spectrometry (LC–MS); details: anaerobutyricum hallii, 2 µM

Row | Structure (SMILES) | Bacterial Biotransformation
32 | CN1CCC[C@@H]1CCO[C@](C)(c1ccccc1)c1ccc(Cl)cc1.O=C(O)/C=C/C(=O)O [CLEMASTINE FUMARATE] | Compound NOT metabolized
33 | Br.CN(C)CCCC1(c2ccc(F)cc2)OCc2cc(C#N)ccc21 (stereo not given) [CITALOPRAM HYDROBROMIDE] | Compound NOT metabolized
34 | CC(=O)SCC(Cc1ccccc1)C(=O)NCC(=O)OCc1ccccc1 (stereo not given) [RACECADOTRIL] | Compound NOT metabolized
35 | C[N+]12CCC(CC1)C(OC(=O)C(O)(c1ccccc1)c1ccccc1)C2.[Br-] (stereo not given) [CLIDINIUM BROMIDE] | Compound NOT metabolized

assay: The drug is tested on Ruminococcus lactaris strain: ATCC29176 for biotransformation. The drug concentrations were measured before and after a 12-h incubation by liquid-chromatography-coupled mass spectrometry (LC–MS); details: 2 µM

Row | Structure (SMILES) | Bacterial Biotransformation
36 | CN1CCC[C@@H]1CCO[C@](C)(c1ccccc1)c1ccc(Cl)cc1.O=C(O)/C=C/C(=O)O [CLEMASTINE FUMARATE] | Compound NOT metabolized
37 | Br.CN(C)CCCC1(c2ccc(F)cc2)OCc2cc(C#N)ccc21 (stereo not given) [CITALOPRAM HYDROBROMIDE] | Compound NOT metabolized
38 | CC(=O)SCC(Cc1ccccc1)C(=O)NCC(=O)OCc1ccccc1 (stereo not given) [RACECADOTRIL] | Compound metabolized
39 | C[N+]12CCC(CC1)C(OC(=O)C(O)(c1ccccc1)c1ccccc1)C2.[Br-] (stereo not given) [CLIDINIUM BROMIDE] | Compound NOT metabolized

assay: The drug is tested on Providencia rettgeri strain: DSM1131 for biotransformation. The drug concentrations were measured before and after a 12-h incubation by liquid-chromatography-coupled mass spectrometry (LC–MS); format: ADME; parameters: dose 2 uM, timepoint 0 vs 12 hours; details: 2 µM

Row | Structure (SMILES) | Bacterial Biotransformation
40 | CN1CCC[C@@H]1CCO[C@](C)(c1ccccc1)c1ccc(Cl)cc1.O=C(O)/C=C/C(=O)O [CLEMASTINE FUMARATE] | Compound metabolized
41 | Br.CN(C)CCCC1(c2ccc(F)cc2)OCc2cc(C#N)ccc21 (stereo not given) [CITALOPRAM HYDROBROMIDE] | Compound NOT metabolized
42 | CC(=O)SCC(Cc1ccccc1)C(=O)NCC(=O)OCc1ccccc1 (stereo not given) [RACECADOTRIL] | Compound NOT metabolized
43 | C[N+]12CCC(CC1)C(OC(=O)C(O)(c1ccccc1)c1ccccc1)C2.[Br-] (stereo not given) [CLIDINIUM BROMIDE] | Compound NOT metabolized

details: bacteroides fragilis, 12 h, 2 µM
Description: The drug is tested on Bacteroides fragilis strain: 3397 (T10) for biotransformation. The drug concentrations were measured before and after a 12-h incubation by liquid-chromatography-coupled mass spectrometry (LC–MS)

Row | Structure (SMILES) | Bacterial Biotransformation
44 | CN1CCC[C@@H]1CCO[C@](C)(c1ccccc1)c1ccc(Cl)cc1.O=C(O)/C=C/C(=O)O [CLEMASTINE FUMARATE] | Compound metabolized
45 | Br.CN(C)CCCC1(c2ccc(F)cc2)OCc2cc(C#N)ccc21 (stereo not given) [CITALOPRAM HYDROBROMIDE] | Compound NOT metabolized
46 | C[N+]12CCC(CC1)C(OC(=O)C(O)(c1ccccc1)c1ccccc1)C2.[Br-] (stereo not given) [CLIDINIUM BROMIDE] | Compound NOT metabolized

details: bacteroides intestinalis, 12 h, 2 µM
Description: The drug is tested on Bacteroides intestinalis strain: DSM17393 for biotransformation. The drug concentrations were measured before and after a 12-h incubation by liquid-chromatography-coupled mass spectrometry (LC–MS)

Row | Structure (SMILES) | Bacterial Biotransformation
47 | CN1CCC[C@@H]1CCO[C@](C)(c1ccccc1)c1ccc(Cl)cc1.O=C(O)/C=C/C(=O)O [CLEMASTINE FUMARATE] | Compound NOT metabolized
48 | Br.CN(C)CCCC1(c2ccc(F)cc2)OCc2cc(C#N)ccc21 (stereo not given) [CITALOPRAM HYDROBROMIDE] | Compound NOT metabolized
49 | CC(=O)SCC(Cc1ccccc1)C(=O)NCC(=O)OCc1ccccc1 (stereo not given) [RACECADOTRIL] | Compound metabolized
50 | C[N+]12CCC(CC1)C(OC(=O)C(O)(c1ccccc1)c1ccccc1)C2.[Br-] (stereo not given) [CLIDINIUM BROMIDE] | Compound NOT metabolized

details: bacteroides thetaiotaomicron, 12 h, 2 µM
Description: The drug is tested on Bacteroides thetaiotaomicron strain: 3731 for biotransformation. The drug concentrations were measured before and after a 12-h incubation by liquid-chromatography-coupled mass spectrometry (LC–MS)

Row | Structure (SMILES) | Bacterial Biotransformation
51 | Br.CN(C)CCCC1(c2ccc(F)cc2)OCc2cc(C#N)ccc21 (stereo not given) [CITALOPRAM HYDROBROMIDE] | Compound NOT metabolized
52 | CC(=O)SCC(Cc1ccccc1)C(=O)NCC(=O)OCc1ccccc1 (stereo not given) [RACECADOTRIL] | Compound metabolized
53 | C[N+]12CCC(CC1)C(OC(=O)C(O)(c1ccccc1)c1ccccc1)C2.[Br-] (stereo not given) [CLIDINIUM BROMIDE] | Compound NOT metabolized

details: parabacteroides distasonis, 12 h, 2 µM
Description: The drug is tested on Parabacteroides distasonis strain: ATCC8503 for biotransformation. The drug concentrations were measured before and after a 12-h incubation by liquid-chromatography-coupled mass spectrometry (LC–MS)

Row | Structure (SMILES) | Bacterial Biotransformation
54 | CN1CCC[C@@H]1CCO[C@](C)(c1ccccc1)c1ccc(Cl)cc1.O=C(O)/C=C/C(=O)O [CLEMASTINE FUMARATE] | Compound metabolized
55 | CC(=O)SCC(Cc1ccccc1)C(=O)NCC(=O)OCc1ccccc1 (stereo not given) [RACECADOTRIL] | Compound metabolized
56 | C[N+]12CCC(CC1)C(OC(=O)C(O)(c1ccccc1)c1ccccc1)C2.[Br-] (stereo not given) [CLIDINIUM BROMIDE] | Compound NOT metabolized

details: anaerostipes sp., 12 h, 2 µM
Description: The drug is tested on Anaerostipes sp. strain: fecal isolate for biotransformation. The drug concentrations were measured before and after a 12-h incubation by liquid-chromatography-coupled mass spectrometry (LC–MS)

Row | Structure (SMILES) | Bacterial Biotransformation
57 | CN1CCC[C@@H]1CCO[C@](C)(c1ccccc1)c1ccc(Cl)cc1.O=C(O)/C=C/C(=O)O [CLEMASTINE FUMARATE] | Compound NOT metabolized
58 | Br.CN(C)CCCC1(c2ccc(F)cc2)OCc2cc(C#N)ccc21 (stereo not given) [CITALOPRAM HYDROBROMIDE] | Compound NOT metabolized
59 | CC(=O)SCC(Cc1ccccc1)C(=O)NCC(=O)OCc1ccccc1 (stereo not given) [RACECADOTRIL] | Compound NOT metabolized
60 | C[N+]12CCC(CC1)C(OC(=O)C(O)(c1ccccc1)c1ccccc1)C2.[Br-] (stereo not given) [CLIDINIUM BROMIDE] | Compound NOT metabolized
